Patent publication US8183263B2 (priority 2007, dated 2012)

tested on: HCV replicon; experiment: HCV replicon replication assay (NPT level by captured ELISA); format: cell-based; details: Hepatitis C virus, 72 h; Huh-7 HCV replicon-containing cells, three days incubation; read-out: Activity (inhibition of HCV replicon replication)
Method: Compounds claimed herein are tested for the ability to inhibit viral replication of the Hepatitis C replicon in cultured cells in which the HCV replicon construct has been incorporated. The HCV replicon system was described by Bartenschlager, et. al (Science, 285, pp. 110-113 (1999)). The replicon system is predictive of in vivo anti-HCV activity; compounds that are active in humans uniformly evidence activity in the replicon assay.
In this assay HCV replicon containing cells are treated with different concentrations of the test compound to ascertain the ability of the test compound to suppress replication of the HCV replicon. As a positive control, HCV replicon-containing cells are treated with different concentrations of interferon alpha, a known inhibitor of HCV replication. The replicon assay system includes Neomycin Phosphotransferase (NPT) as a component of the replicon itself in order to detect the transcription of replicon gene products in the host cell. Cells in which the HCV replicon is actively replicating have high levels of NPT; the level of NPT is proportional to HCV replication. […] The NPT level of each sample is measured using a captured ELISA.
A protocol for testing compounds for the ability to inhibit viral replication of the Hepatitis C replicon cultured cells in which the replicon construct has been incorporated, follows.
The HCV replicon contains, 5′-3′, the HCV-IRES, the neomycin phosphotransferase (neo) gene, the IRES of encephalomyocarditis virus, which directs translation of HCV sequences NS3 to NS5B, and the 3′-NTR. The sequence of the HCV replicon has been deposited in GenBank (Accession no. AJ242652).
The replicon is transfected into Huh-7 cells using standard methods such as electroporation.
The equipment and materials include, but are not limited to, Huh-7 HCV replicon-containing cells, maintenance media (DMEM (Dulbecco's modified Eagle media) supplemented with 10% FBS, L-glutamine, non-essential amino acids, penicillin (100 units/ml), streptomycin (100 micrograms/ml), and 500 micrograms/ml of Geneticin (G418), screening media (DMEM supplemented with 10% FBS, L-glutamine, non-essential amino acids, penicillin (100 units/ml) and streptomycin (100 micrograms/ml)), 96 well tissue culture plates (flat bottom), 96 well plates (U bottom for drug dilution), Interferon alpha for positive control, fixation reagent (such as methanol: acetone), primary antibody (rabbit anti-NPTII), secondary antibody: Eu—N1 1, and enhancement solution.
HCV replicon-containing cells are rinsed with once PBS once; 2 mls of trypsin are then added. Cells are incubated at 37° C. in a 5% CO2 incubator for 3-5 minutes. 10 mls of complete medium is added to stop the reaction. Cells are blown gently, put into a 15 ml tube, and spun at 1200 rpm for four minutes. The trypsin/medium solution is removed and 5 mls of medium (500 ml DMEM (high glucose)) from BRL catalog #12430-054; 50 mls 10% FBS, 5% Geneticin G418 (50 mg/ml, BRL catalog #10131-035), 5 ml MEM non-essential amino acids (100×BRL #11140-050) and 5 ml pen-strep (BRL #15140-148) is added. The cells and media are mixed carefully
Cells are plated with screening medium (500 ml DMEM (BRL #21063-029), 50 ml FBS (BRL #10082-147) and 5 ml MEM non-essential amino acid (BRL #11140-050) at 6000-7500 cells/100 μl/well of 96 well plate (6-7.5×10^5 cells/10 ml/plate). Plates are placed into 37° C. 5% CO2 incubator overnight.
The following morning, drugs (test compounds or interferon alpha) are diluted in 96 well U bottom plates with media or DMSO/media, depending on the final concentration chosen for screening. Generally for 6 concentrations of each test compounds ranging from 10 micromolar to 0.03 micromolar are applied. 100 μl of the test compound dilution is placed in wells of the 96 well plate containing the HCV replicon cells. Media without drug is added to some wells as a negative controls. DMSO is known to affect cell growth. […]

`Fc1sc(Nc2ccc(CCCOc3ccc(Cl)cc3)c(C(F)(F)F)c2)nc1-c1cccnc1` [Cmp 104, N-(4-(3-(4-chlorophenoxy)propyl)-3-(trifluoromethyl)phenyl)-5-fluoro-4-(pyridin-3-yl)thiazol-2-amine] and `Cc1ccc(OCCCc2ccc(Nc3nc(-c4cccnc4)c(F)s3)cc2C(F)(F)F)cc1` [Cmp 127, 5-fluoro-4-(pyridin-3-yl)-N-(4-(3-(p-tolyloxy)propyl)-3-(trifluoromethyl)phenyl)thiazol-2-amine] cannot be ordered by EC50: under 1000 nM for the first, under 1000 nM for the second.

`CCCCCc1nc2ccc(Nc3nc(-c4cccnc4)cs3)cc2o1` [Cmp 66, 2-pentyl-N-(4-(pyridin-3-yl)thiazol-2-yl)benzo[d]oxazol-6-amine] and `CCCCCc1nc2cc(Nc3nc(-c4cccnc4)cs3)ccc2o1` [Cmp 64] cannot be ordered by EC50: under 1000 nM for the first, under 1000 nM for the second.

`CC(F)(F)c1cc(Nc2nc(-c3cccnc3)c(F)s2)ccc1Oc1ccccc1` [Cmp 82, N-(3-(1,1-difluoroethyl)-4-phenoxyphenyl)-5-fluoro-4-(pyridin-3-yl)thiazol-2-amine] and `CC(=O)c1cc(Nc2nc(-c3cccnc3)c(F)s2)ccc1Oc1ccc(Cl)cc1` [Cmp 130, 1-(2-(4-chlorophenoxy)-5-(5-fluoro-4-(pyridin-3-yl)thiazol-2-ylamino)phenyl)ethanone] cannot be ordered by EC50: under 1000 nM for the first, under 1000 nM for the second.

`FC(F)(F)c1cc(Nc2nc(-c3cccnc3)cs2)ccc1CCCCOc1ccccc1` [Cmp 132] and `FC(F)(F)c1cc(Nc2nc(-c3cccnc3)cs2)ccc1OCCCCCc1ccccc1` [Cmp 21] cannot be ordered by EC50: under 1000 nM for the first, under 1000 nM for the second.

`CCCCCCCCc1ccc(Nc2nc(-c3ccc(F)nc3)cs2)cc1C(F)(F)F` [Cmp 168, 4-(6-fluoropyridin-3-yl)-N-(4-octyl-3-(trifluoromethyl)phenyl)thiazol-2-amine] and `CCCCCCCCc1ccc(Nc2nc(-c3cncc(C#N)c3)cs2)cc1C(F)(F)F` [Cmp 180, 5-(2-(4-octyl-3-(trifluoromethyl)phenylamino)thiazol-4-yl)nicotinonitrile] cannot be ordered by EC50: under 1000 nM for the first, under 1000 nM for the second.

`CCCCCCc1ccc(Nc2nc(-c3cccnc3)cs2)cc1C(F)(F)F` [Cmp 105, N-(4-hexyl-3-(trifluoromethyl)phenyl)-4-(pyridin-3-yl)thiazol-2-amine] and `Cc1ccc(CCCCCc2ccc(Nc3nc(-c4cccnc4)cs3)cc2C(F)(F)F)cc1` [Cmp 73, 4-(pyridin-3-yl)-N-(4-(5-p-tolylpentyl)-3-(trifluoromethyl)phenyl)thiazol-2-amine] cannot be ordered by EC50: under 1000 nM for the first, under 1000 nM for the second.

`CCCCCCCc1nc2cc(Nc3nc(-c4cnc(OC)nc4)c(F)s3)ccc2o1` [Cmp 57, N-(5-fluoro-4-(2-methoxypyrimidin-5-yl)thiazol-2-yl)-2-heptylbenzo[d]oxazol-5-amine] and `CCCCCc1nc2cc(Nc3nc(-c4cnc(OC)nc4)c(F)s3)ccc2o1` [Cmp 56, N-(5-fluoro-4-(2-methoxypyrimidin-5-yl)thiazol-2-yl)-2-pentylbenzo[d]oxazol-5-amine] cannot be ordered by EC50: under 1000 nM for the first, under 1000 nM for the second.

`CCCCCCCCOc1cc(Nc2nc(-c3cnc(OC)nc3)c(F)s2)ccc1C(F)(F)F` [Cmp 88, 5-fluoro-4-(2-methoxypyrimidin-5-yl)-N-(3-(octyloxy)-4-(trifluoromethyl)phenyl)thiazol-2-amine] and `CCCCCCCCc1ccc(Nc2nc(-c3cnc(OC)nc3)c(F)s2)cc1C(F)(F)F` [Cmp 36, 5-fluoro-4-(2-methoxypyrimidin-5-yl)-N-(4-octyl-3-(trifluoromethyl)phenyl)thiazol-2-amine] cannot be ordered by EC50: under 1000 nM for the first, under 1000 nM for the second.

`CCCCCCCCc1cc2ccc(Nc3nc(-c4ccc(C)nc4)cs3)cc2o1` [Cmp 115, 4-(6-methylpyridin-3-yl)-N-(2-octylbenzofuran-6-yl)thiazol-2-amine] and `CCCCCCCCc1c(F)cc(Nc2nc(-c3cccnc3)cs2)cc1F` [Cmp 94, N-(3,5-difluoro-4-octylphenyl)-4-(pyridin-3-yl)thiazol-2-amine] cannot be ordered by EC50: under 1000 nM for the first, under 1000 nM for the second.

Compared with `CCCCCCCCc1ccc(Nc2nc(-c3ccc(OC(=O)[C@@H](N)C(C)C)nc3)cs2)cc1C(F)(F)F` [Cmp 135, (S)-5-(2-(4-octyl-3-(trifluoromethyl)phenylamino)thiazol-4-yl)pyridin-2-yl 2-amino-3-methylbutanoate], `CCCCCCCCOc1cc(Nc2nc(-c3cnc(OC)nc3)cs2)ccc1C(F)(F)F` [Cmp 71, 4-(2-methoxypyrimidin-5-yl)-N-(3-(octyloxy)-4-(trifluoromethyl)phenyl)thiazol-2-amine] is lower in EC50: 1000 to 10000 nM for the first, under 1000 nM for the second. The second is the more potent here.

`CCc1ccc(Oc2ccc(Nc3nc(-c4cccnc4)cs3)cc2C(C)=O)cc1` and `N#Cc1ccc(Oc2ccc(Nc3nc(-c4cccnc4)cs3)cc2C(F)(F)F)cc1` [Cmp 48, 4-(4-(4-(pyridin-3-yl)thiazol-2-ylamino)-2-(trifluoromethyl)phenoxy)benzonitrile] cannot be ordered by EC50: under 1000 nM for the first, under 1000 nM for the second.

`CCCCCCCCOc1ccc(Nc2ncc(Br)s2)cc1C(F)(F)F` [Cmp 143, 5-bromo-N-(4-(octyloxy)-3-(trifluoromethyl)phenyl)thiazol-2-amine] and `CCCCCCCCOc1ccc(Nc2nc(-c3cnccn3)c(Cl)s2)cc1C(F)(F)F` [Cmp 162, 5-chloro-N-(4-(octyloxy)-3-(trifluoromethyl)phenyl)-4-(pyrazin-2-yl)thiazol-2-amine] cannot be ordered by EC50: under 1000 nM for the first, under 1000 nM for the second.

`CCc1ccc(Oc2ccc(Nc3nc(-c4cnc(OC)nc4)cs3)cc2C(F)(F)F)cc1` [Cmp 53, N-(4-(4-ethylphenoxy)-3-(trifluoromethyl)phenyl)-4-(2-methoxypyrimidin-5-yl)thiazol-2-amine] and `Cc1ccc(CCCCOc2ccc(Nc3nc(-c4cccnc4)c(Cl)s3)cc2C(F)(F)F)cc1` [Cmp 109, 5-chloro-4-(pyridin-3-yl)-N-(4-(4-p-tolylbutoxy)-3-(trifluoromethyl)phenyl)thiazol-2-amine] cannot be ordered by EC50: under 1000 nM for the first, under 1000 nM for the second.

`CCCCCOc1cc(Nc2nc(-c3cccnc3)c(F)s2)ccc1C` [Cmp 29] and `CC/C=C\CCCCOc1ccc(Nc2nc(-c3cccnc3)c(F)s2)cc1C(F)(F)F` [Cmp 165, (Z)-5-fluoro-N-(4-(oct-5-enyloxy)-3-(trifluoromethyl)phenyl)-4-(pyridin-3-yl)thiazol-2-amine] cannot be ordered by EC50: under 1000 nM for the first, under 1000 nM for the second.

`CCCCCCCCOc1ccc(Nc2nc(-c3cccnc3)cs2)cc1C(C)=O` [Cmp 140, 1-(2-(octyloxy)-5-(4-(pyridin-3-yl)thiazol-2-ylamino)phenyl)ethanone] and `CCCCCCCCOc1ccc(Nc2nc(-c3cccnc3)cs2)cc1C(N)=O` [Cmp 156, 2-(octyloxy)-5-(4-(pyridin-3-yl)thiazol-2-ylamino)benzamide] cannot be ordered by EC50: under 1000 nM for the first, under 1000 nM for the second.

`Cc1ccc(Nc2nc(-c3ccc(F)cc3)c(F)s2)cc1OCC1CCCCC1` [Cmp 61, N-(3-(cyclohexylmethoxy)-4-methylphenyl)-5-fluoro-4-(4-fluorophenyl)thiazol-2-amine] and `CCCCOCCCCc1ccc(Nc2nc(-c3cccnc3)c(F)s2)cc1C(F)(F)F` [Cmp 234, N-(4-(4-butoxybutyl)-3-(trifluoromethyl)phenyl)-5-fluoro-4-(pyridin-3-yl)thiazol-2-amine] cannot be ordered by EC50: under 1000 nM for the first, under 1000 nM for the second.

`CCCCCCCCC1Cc2ccc(Nc3nc(-c4cccnc4)c(F)s3)cc2O1` (stereo not shown) [Cmp 129, 5-fluoro-N-(2-octyl-2,3-dihydrobenzofuran-6-yl)-4-(pyridin-3-yl)thiazol-2-amine] and `CC(C)(C)c1cc2cc(Nc3nc(-c4cccnc4)cs3)ccc2o1` [Cmp 150, N-(2-tert-butylbenzofuran-5-yl)-4-(pyridin-3-yl)thiazol-2-amine] cannot be ordered by EC50: under 1000 nM for the first, under 1000 nM for the second.
